Test results published in patent publication US9469650B2, “Melampomagnolide B derivatives” (BOARD OF TRUSTEES OF THE UNIVERSITY OF ARKANSAS, priority 2013, dated 2016).

Experiments:
AML 052308 cells = assay: cells; conditions: read-out: LC50
Excerpt: Derivatives were screened for antileukemic activity against AML cells in culture (See FIGS. 1-7).

Compound: C=C1C(=O)O[C@H]2[C@H]1CC/C(COC(=O)NCCN1CCCCC1)=C\CC[C@@]1(C)O[C@@H]21 [JVM 2-13]
- CC50 (BT-549): 44.3 µM
- CC50 (UACC-257): 49.9 µM
- CC50 (COLO 205): 7.75 µM
- CC50 (HOP-62): 68.5 µM
- CC50 (MDA-MB-468): 28.5 µM
- CC50 (HOP-92): 42.1 µM
- CC50 (KM12): 61.6 µM
- CC50 (SF-539): 48.4 µM
- CC50 (ACHN): 45.6 µM

Compound: C=C1C(=O)O[C@H]2[C@H]1CC/C(COC(=O)Nc1n[nH]c(SC)n1)=C\CC[C@@]1(C)O[C@@H]21 [JVM 64, ((1aR,7aS,10aS,10bS,E)-1a-methyl-8-methylene-9-oxo-1a,2,3,6,7,7a,8,9,10a,10b-decahydrooxireno[2′,3′:9,10]cyclodeca[1,2-b]furan-5-yl)methyl-(5-(methylthio)-1H-1,2,4-triazol-3-yl)carbamate]
- CC50 (AML 052308 cells): 7.4 µM

Compound: C=C1C(=O)O[C@H]2[C@H]1CC/C(COC(=O)OCCCN1CCCCC1)=C\CC[C@@]1(C)O[C@@H]21 [JVM 2-26]
- CC50 (AML 052308 cells): 5 µM

Compound: C=C1C(=O)O[C@H]2[C@H]1CC/C(COC(=O)NC)=C\CC[C@@]1(C)O[C@@H]21 [JVM 2-57]
- CC50 (BT-549): 33.1 µM
- CC50 (UACC-257): 44.1 µM
- CC50 (HOP-62): 59.5 µM
- CC50 (MDA-MB-468): 49 µM
- CC50 (HCT-116): 33.6 µM
- CC50 (HOP-92): 29.7 µM
- CC50 (KM12): 55.9 µM
- CC50 (SF-539): 42.9 µM
- CC50 (OVCAR-3): 34.3 µM
- CC50 (ACHN): 43.3 µM
- CC50 (RPMI-8226): 90.3 µM

Compound: C=C1C(=O)O[C@H]2[C@H]1CC/C(COC(=O)NCCO)=C\CC[C@@]1(C)O[C@@H]21 [JVM 2-50]
- CC50 (BT-549): 42.9 µM
- CC50 (UACC-257): 63.5 µM
- CC50 (COLO 205): 50.7 µM
- CC50 (HOP-62): > 100 µM
- CC50 (MDA-MB-468): 49.1 µM
- CC50 (HOP-92): 42.3 µM
- CC50 (SF-539): 56.2 µM
- CC50 (OVCAR-3): 47.3 µM
- CC50 (ACHN): 71.1 µM
- CC50 (RPMI-8226): > 100 µM

Compound: C=C1C(=O)O[C@H]2[C@H]1CC/C(COC(=S)n1ccnc1)=C\CC[C@@]1(C)O[C@@H]21 [JVM 66]
- CC50 (AML 052308 cells): 2.6 µM

Compound: C=C1C(=O)O[C@H]2[C@H]1CC/C(COC(=O)CCC(=O)N1CCC(C)CC1)=C\CC[C@@]1(C)O[C@@H]21 [JVM 2-70]
- CC50 (BT-549): 29.3 µM
- CC50 (UACC-257): 47 µM
- CC50 (COLO 205): 31.9 µM
- CC50 (HOP-62): 74.9 µM
- CC50 (HCT-116): 11.9 µM
- CC50 (HOP-92): 36.4 µM
- CC50 (KM12): 56.6 µM
- CC50 (OVCAR-3): 32.5 µM
- CC50 (ACHN): 43.5 µM
- CC50 (RPMI-8226): > 100 µM

Compound: C=C1C(=O)O[C@H]2[C@H]1CC/C(COC(=O)N1CCC(F)(F)CC1)=C\CC[C@@]1(C)O[C@@H]21 [JVM 2-66]
- CC50 (BT-549): 29.5 µM
- CC50 (UACC-257): 36.5 µM
- CC50 (COLO 205): 8.44 µM
- CC50 (HOP-62): 58.3 µM
- CC50 (MDA-MB-468): 11.5 µM
- CC50 (HCT-116): 7.75 µM
- CC50 (HOP-92): 11.1 µM
- CC50 (KM12): 54.5 µM
- CC50 (SF-539): 12.3 µM
- CC50 (OVCAR-3): 9.62 µM
- CC50 (RPMI-8226): > 100 µM

Compound: C=C1C(=O)O[C@H]2[C@H]1CC/C(COC(=O)N1CCN(C)CC1)=C\CC[C@@]1(C)O[C@@H]21 [JVM 2-44]
- CC50 (BT-549): 49 µM
- CC50 (UACC-257): 54.1 µM
- CC50 (COLO 205): 64.8 µM
- CC50 (HOP-62): > 100 µM
- CC50 (MDA-MB-468): 48.7 µM
- CC50 (HCT-116): 48 µM
- CC50 (HOP-92): 44.3 µM
- CC50 (KM12): 68.9 µM
- CC50 (SF-539): 55.1 µM
- CC50 (OVCAR-3): 42.3 µM
- CC50 (ACHN): 52.6 µM
